In patent US5892018A, “DNA sequences encoding a brain sodium channel protein” (priority 1997, dated 1999):
Ends that are not written are not given here.

Target: T1, BNC1 (Homo sapiens, UniProt Q16515)
T1 construct: a 1539-bp open reading frame extending to the 3' stop codon; expressed in transfected cells; host or cells: Xenopus laevis oocytes, nuclear injection of BNC1 cDNA in pMT3
T1 sequence (Q16515 1-512 T495A): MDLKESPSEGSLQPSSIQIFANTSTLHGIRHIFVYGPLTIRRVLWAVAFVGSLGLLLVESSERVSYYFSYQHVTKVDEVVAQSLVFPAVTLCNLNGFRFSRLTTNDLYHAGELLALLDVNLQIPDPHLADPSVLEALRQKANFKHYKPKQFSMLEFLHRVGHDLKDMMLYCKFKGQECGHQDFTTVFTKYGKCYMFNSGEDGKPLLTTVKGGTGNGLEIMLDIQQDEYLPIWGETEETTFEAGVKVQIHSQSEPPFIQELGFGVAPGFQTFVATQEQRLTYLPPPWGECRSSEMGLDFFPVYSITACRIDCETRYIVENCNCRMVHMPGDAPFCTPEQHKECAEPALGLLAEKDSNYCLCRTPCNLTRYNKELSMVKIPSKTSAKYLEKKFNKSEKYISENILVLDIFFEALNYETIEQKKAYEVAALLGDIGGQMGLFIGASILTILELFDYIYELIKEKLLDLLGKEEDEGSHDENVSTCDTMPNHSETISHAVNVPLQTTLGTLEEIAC
Experiment: Two-electrode voltage clamp of Xenopus oocytes expressing BNC1
Assay type: cell-based
Conditions: for activation of BNC1 current by agonist peptide: peptide added to bathing solution at 1-30 μM
Description: Expression of BNC1 in Xenopus laevis Oocytes--BNC1 was expressed in Xenopus oocytes by nuclear injection of BNC1 cDNA cloned into pMT3 (0.2-0.3 ng). Control oocytes were injected with H2 O. α-, β-, and γhENaC (αβγhENaC) were expressed as described previously. Oocytes were maintained at 18° C. in modified Barth's solution, and current was measured by two-electrode voltage clamp 1 day after injection. During voltage clamp, oocytes were bathed in 116 mM NaCl, 2 mM KCl, 0.4 mM CaCl2, 1 mM Mg Cl2, 5 mM Hepes (pH 7.4 with NaOH). To determine ionic selectivity, NaCl was replaced with LiCl or KCl. Current-voltage relationships were determined by stepping from a holding potential of -60 mV to potentials between -100 and +40 mV for 1 second. Amiloride-sensitive current was obtained by subtracting current during exposure to a maximal concentration of amiloride (100 μM) from current prior to amiloride addition. Phe-Met-Arg-Phe-NH2 (FMRF-am-ide), Phe-Leu-Phe-Gln-Pro-Gln-Arg-Phe-NH2 (F-8-F-amide), and Ala-Gly-Glu-Gly-Leu-Ser-Ser-Pro-Phe-Trp-Ser-Leu-Ala-Ala-Pro-Gln-Arg-Phe-NH2 (A-18-F-amide) were obtained from Sigma and were added to the bathing solution at 1-30 μM.

Molecule	activation of BNC1 current by agonist peptide (BNC1 in Xenopus oocytes)	IC50 (BNC1 expressed in Xenopus oocytes, plotted as fraction of response to 100 μM amiloride, n=4 (FIG. 8), read-out: half-maximal inhibition of Na+ current) [nM]	inward current reversibly inhibited by amiloride (amiloride-sensitive current) (BNC1 in Xenopus oocytes, holding potential -60 mV, amiloride 100 μM, n=12 (FIG. 6)) [nA]
CC(C)C[C@H](NC(=O)[C@@H](N)Cc1ccccc1)C(=O)N[C@@H](Cc1ccccc1)C(=O)N[C@@H](CCC(N)=O)C(=O)N1CCC[C@H]1C(=O)N[C@@H](CCC(N)=O)C(=O)N[C@@H](CCCNC(=N)N)C(=O)N[C@@H](Cc1ccccc1)C(N)=O [F-8-F-amide, Phe-Leu-Phe-Gln-Pro-Gln-Arg-Phe-NH2]	not activated	–	–
N=C(N)NC(=O)c1nc(Cl)c(N)nc1N [amiloride]	–	147 ± 23	14.0±2.7
Ala-Gly-Glu-Gly-Leu-Ser-Ser-Pro-Phe-Trp-Ser-Leu-Ala-Ala-Pro-Gln-Arg-Phe-NH2 (AGEGLSSPFWSLAAPQRF-NH2) [A-18-F-amide, related mammalian peptide, obtained from Sigma]	not activated	–	–
